From patent publication US10988477B2 (Merck Patent GmbH, priority 2018, dated 2021)

Legend:
[1] = target: intracellular GCN2 (phosphorylation of the GCN2 substrate eIF2α) (Homo sapiens, UniProt Q9P2K8); assay: GCN2 cellular inhibition assay (AlphaScreen SureFire P-eIF2α Ser51, borrelidin-treated U2OS cells); assay type: cell-based; conditions: biomarker assay, phosphorylated eIF2α Ser51 in borrelidin-treated U2OS cells
Outline: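 Phospho-eIF2α (Ser51) in lysates was quantified by AlphaScreen SureFire after a 1 h, 37 °C treatment of U2OS cells with 10 μM borrelidin and compound at 4-fold dilutions starting from 40 μM final. Inhibition expressed in percent against wells stimulated by borrelidin alone.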

GCN2 kinase = GCN2 kinase (Homo sapiens, UniProt Q9P2K8); assay: GCN2 enzyme inhibition assay (Transcreener ADP2 fluorescence polarization); assay type: biochemical; conditions: 280 μM ATP
Sequence of GCN2 kinase (Q9P2K8 whole entry): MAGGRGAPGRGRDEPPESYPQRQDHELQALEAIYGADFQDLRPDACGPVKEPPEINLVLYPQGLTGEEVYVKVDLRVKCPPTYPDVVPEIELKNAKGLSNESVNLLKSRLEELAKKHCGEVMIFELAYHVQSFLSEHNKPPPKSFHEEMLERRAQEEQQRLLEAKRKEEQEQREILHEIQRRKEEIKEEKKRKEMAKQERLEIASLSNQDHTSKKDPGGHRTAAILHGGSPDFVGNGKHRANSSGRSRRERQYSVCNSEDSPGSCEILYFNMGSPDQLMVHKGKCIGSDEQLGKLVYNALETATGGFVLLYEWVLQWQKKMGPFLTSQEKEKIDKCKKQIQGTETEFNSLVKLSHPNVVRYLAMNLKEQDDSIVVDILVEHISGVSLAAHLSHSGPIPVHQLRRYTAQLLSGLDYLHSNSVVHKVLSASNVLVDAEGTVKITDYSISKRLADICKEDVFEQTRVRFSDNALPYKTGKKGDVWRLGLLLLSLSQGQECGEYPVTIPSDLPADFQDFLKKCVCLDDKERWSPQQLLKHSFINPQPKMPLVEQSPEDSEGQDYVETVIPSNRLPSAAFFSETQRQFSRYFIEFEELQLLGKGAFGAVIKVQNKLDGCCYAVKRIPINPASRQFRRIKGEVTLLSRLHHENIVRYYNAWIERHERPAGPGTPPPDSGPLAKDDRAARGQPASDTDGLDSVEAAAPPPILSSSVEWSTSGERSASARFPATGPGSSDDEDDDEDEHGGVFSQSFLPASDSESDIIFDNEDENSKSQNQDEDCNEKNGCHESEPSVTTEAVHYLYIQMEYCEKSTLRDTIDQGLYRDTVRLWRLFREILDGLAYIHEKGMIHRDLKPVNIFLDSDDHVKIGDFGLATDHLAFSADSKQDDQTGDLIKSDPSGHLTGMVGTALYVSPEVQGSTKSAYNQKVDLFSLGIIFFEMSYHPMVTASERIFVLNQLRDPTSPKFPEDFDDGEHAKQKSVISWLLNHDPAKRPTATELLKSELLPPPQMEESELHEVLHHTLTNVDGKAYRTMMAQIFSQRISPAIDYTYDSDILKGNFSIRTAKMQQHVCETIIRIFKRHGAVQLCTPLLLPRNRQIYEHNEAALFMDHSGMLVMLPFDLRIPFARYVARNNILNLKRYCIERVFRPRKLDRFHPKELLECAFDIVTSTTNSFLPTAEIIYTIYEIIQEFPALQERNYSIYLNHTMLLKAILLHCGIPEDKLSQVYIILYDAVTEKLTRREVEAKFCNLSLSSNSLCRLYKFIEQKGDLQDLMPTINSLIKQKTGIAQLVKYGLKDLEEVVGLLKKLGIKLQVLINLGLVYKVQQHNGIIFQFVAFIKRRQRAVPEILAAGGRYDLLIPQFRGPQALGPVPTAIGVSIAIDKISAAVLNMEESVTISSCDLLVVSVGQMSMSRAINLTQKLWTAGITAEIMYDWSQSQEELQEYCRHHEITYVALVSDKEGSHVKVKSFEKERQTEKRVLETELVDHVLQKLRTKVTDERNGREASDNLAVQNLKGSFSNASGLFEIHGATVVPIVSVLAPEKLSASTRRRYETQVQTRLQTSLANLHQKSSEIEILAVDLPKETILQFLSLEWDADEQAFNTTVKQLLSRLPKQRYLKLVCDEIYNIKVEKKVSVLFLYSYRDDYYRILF
Outline: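 ADP formation read by Transcreener FP after a 1 h, 25 °C kinase reaction containing 280 μM ATP, 200 μM (RS)7 substrate and 4 nM GCN2, pH 7.5 Tris buffer. Compounds (0–8 μM final) were added 10 min before ATP. Percent inhibition gave IC50 and apparent Ki via tight-binding fit.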

[2] = Enzyme activity for compounds of Formula IV, Ki(app), 25° C.
[3] = compounds of Formula II, 4 nM GCN2 kinase

Sequence of intracellular GCN2 (phosphorylation of the GCN2 substrate eIF2α) (Q9P2K8 whole entry): as above

SMILES | IC50 ([1]; compounds of Formula IV) [nM] | Ki (GCN2 kinase; [2]) [nM] | IC50 ([1]; compounds of Formula II) [nM] | Ki (GCN2 kinase; [3]) [nM]
NS(=O)(=O)N1CC2(CCCN(c3cc(-c4cnc5ccc(C(F)F)nn45)ncn3)C2)C1 [II-333, 6-(6-(6-(Difluoromethyl)imidazo[1,2-b]pyridazin-3-yl)pyrimidin-4-yl)-2,6-diazaspiro[3.5]nonane-2-sulfonamide] | – | – | 500 to 5000 | 10 to 1000
FC(F)c1ccc2ncc(-c3cc(N4CC5(COC5)C4)ncn3)n2n1 [II-252, 6-(6-(6-(Difluoromethyl)imidazo[1,2-b]pyridazin-3-yl)pyrimidin-4-yl)-2-oxa-6-azaspiro[3.3]heptane] | – | – | > 5000 | 10 to 1000
CS(=O)(=O)NCC1CCCN(c2cc(-c3cnc4ccc(C(F)F)nn34)cc(N3CC4(CNC4)C3)n2)C1 (stereo not drawn) [II-92, N-[[1-[6-(2,6-Diazaspiro[3.3]heptan-2-yl)-4-[6-(difluoromethyl)imidazo[1,2-b]pyridazin-3-yl]-2-pyridyl]-3-piperidyl]methyl]methanesulfonamide] | – | – | 500 to 5000 | < 10
CC1CN(c2cc(-c3cnc4ccc(C(F)F)nn34)ncn2)CC(CNS(C)(=O)=O)O1 (stereo not drawn) [II-33, N-((4-(6-(6-(Difluoromethyl)imidazo[1,2-b]pyridazin-3-yl)pyrimidin-4-yl)-6-methylmorpholin-2-yl)methyl)methanesulfonamide] | – | – | < 500 | < 10
Cc1ncc(-c2cnc3ccc(C(F)F)nn23)cc1N1CCCC(CNS(C)(=O)=O)C1 (stereo not drawn) [II-49, N-((1-(5-(6-(Difluoromethyl)imidazo[1,2-b]pyridazin-3-yl)-2-methylpyridin-3-yl)piperidin-3-yl)methyl)methanesulfonamide] | – | – | 500 to 5000 | 10 to 1000
CNc1cc(N2CCCC(CNS(C)(=O)=O)C2)cc(-c2cnc3ccc(C(F)F)nn23)n1 (stereo not drawn) [II-60, N-((1-(2-(6-(Difluoromethyl)imidazo[1,2-b]pyridazin-3-yl)-6-(methylamino)pyridin-4-yl)piperidin-3-yl)methyl)methanesulfonamide] | – | – | < 500 | < 10
CS(=O)(=O)CC1CCCN(c2cc(-c3cnc4ccc(C(F)F)nn34)ncn2)C1 (stereo not drawn) [II-430, 6-(Difluoromethyl)-3-(6-(3-((methylsulfonyl)methyl)piperidin-1-yl)pyrimidin-4-yl)imidazo[1,2-b]pyridazine] | – | – | 500 to 5000 | 10 to 1000
CC1CN(c2cc(-c3cnc4ccc(C(F)(F)F)nn34)ncn2)CC(CNS(C)(=O)=O)C1(F)F (stereo not drawn) [II-293, N-((4,4-Difluoro-5-methyl-1-(6-(6-(trifluoromethyl)imidazo[1,2-b]pyridazin-3-yl)pyrimidin-4-yl)piperidin-3-yl)methyl)methanesulfonamide] | – | – | 500 to 5000 | 10 to 1000
NS(=O)(=O)NCC1CCCN(c2cc(-c3cnc4ccc(C(F)F)nn34)ncn2)C1 (stereo not drawn) [II-202, 1-((1-(6-(6-(Difluoromethyl)imidazo[1,2-b]pyridazin-3-yl)pyrimidin-4-yl)piperidin-3-yl)methyl)sulfuric diamide] | – | – | < 500 | < 10
CC(NS(C)(=O)=O)C1CCCN(c2cc(-c3cnc4ccc(C(F)F)nn34)ccn2)C1 (stereo not drawn) [II-133, N-(1-(1-(4-(6-(Difluoromethyl)imidazo[1,2-b]pyridazin-3-yl)pyridin-2-yl)piperidin-3-yl)ethyl)methanesulfonamide] | – | – | 500 to 5000 | < 10
NC(=O)C1CCN(c2cc(-c3cnc4ccc(C(F)F)nn34)ncn2)C1 (stereo not drawn) [II-399, 1-(6-(6-(Difluoromethyl)imidazo[1,2-b]pyridazin-3-yl)pyrimidin-4-yl)pyrrolidine-3-carboxamide] | – | – | > 5000 | 10 to 1000
CC1C(C(N)=O)NCCN1c1cc(-c2cnc3ccc(C(F)F)nn23)ncn1 (stereo not drawn) [II-477, 4-(6-(6-(Difluoromethyl)imidazo[1,2-b]pyridazin-3-yl)pyrimidin-4-yl)-3-methylpiperazine-2-carboxamide] | – | – | 500 to 5000 | 10 to 1000
CS(=O)(=O)N1CCC2(CCCN(c3cc(-c4cnc5ccc(C(F)F)nn45)ncn3)C2)C1 (stereo not drawn) [II-56, 7-(6-(6-(Difluoromethyl)imidazo[1,2-b]pyridazin-3-yl)pyrimidin-4-yl)-2-(methylsulfonyl)-2,7-diazaspiro[4.5]decane] | – | – | 500 to 5000 | 10 to 1000
CC1CC(F)(F)C(CNS(C)(=O)=O)CN1c1cc(-c2cnc3ccc(C(F)F)nn23)ncn1 (single isomer, unassigned) [II-305, N-((1-(6-(6-(Difluoromethyl)imidazo[1,2-b]pyridazin-3-yl)pyrimidin-4-yl)-4,4-difluoro-6-methylpiperidin-3-yl)methyl)methanesulfonamide] | – | – | > 5000 | 10 to 1000
CS(=O)(=O)NC[C@@H]1CN(c2cc(-c3cnc4ccc(C(F)F)nn34)ncn2)C[C@H](C(F)(F)F)O1 [II-331, N-(((2S,6R)-4-(6-(6-(Difluoromethyl)imidazo[1,2-b]pyridazin-3-yl)pyrimidin-4-yl)-6-(trifluoromethyl)morpholin-2-yl)methyl)methanesulfonamide] | – | – | < 500 | < 10
CS(=O)(=O)N1CCC2(CCN(c3cc(-c4cnc5ccc(C(F)F)nn45)ncn3)C2)CC1 [II-54, 2-(6-(6-(Difluoromethyl)imidazo[1,2-b]pyridazin-3-yl)pyrimidin-4-yl)-8-(methylsulfonyl)-2,8-diazaspiro[4.5]decane] | – | – | 500 to 5000 | 10 to 1000
CC(=O)NC1CCN(c2cc(-c3cnc4ccc(-c5cccnc5)nn34)ccn2)CC1 [II-735, N-(1-(4-(6-(pyridin-3-yl)imidazo[1,2-b]pyridazin-3-yl)pyridin-2-yl)piperidin-4-yl)acetamide] | – | – | > 5000 | > 1000
[2H]C([2H])([2H])N1CCN(c2cc(-c3cnc4ccc(C(F)F)nn34)ncn2)C(C)C1CNS(C)(=O)=O (stereo not drawn) [II-523, N-((4-(6-(6-(Difluoromethyl)imidazo[1,2-b]pyridazin-3-yl)pyrimidin-4-yl)-3-methyl-1-(methyl-d3)piperazin-2-yl)methyl)methanesulfonamide] | – | – | < 500 | < 10

Second part, the molecule after the results:

IC50 ([1]; compounds of Formula IV) [nM] | Ki (GCN2 kinase; [2]) [nM] | IC50 ([1]; compounds of Formula II) [nM] | Ki (GCN2 kinase; [3]) [nM] | SMILES
> 5000 | 100 to 1000 | – | – | FC(F)c1cn2c(-c3nccc(N4CCC(C5COC5)C4)n3)cnc2cn1 (stereo not drawn) [IV-73, 6-(Difluoromethyl)-3-(4-(3-(oxetan-3-yl)pyrrolidin-1-yl)pyrimidin-2-yl)imidazo[1,2-a]pyrazine]
500 to 5000 | 100 to 1000 | – | – | CC1(C)CN(c2ccnc(-c3cnc4cnc(Cl)cn34)n2)CC(c2cn[nH]c2)N1 (stereo not drawn) [IV-353, 6-Chloro-3-(4-(3,3-dimethyl-5-(1H-pyrazol-4-yl)piperazin-1-yl)pyrimidin-2-yl)imidazo[1,2-a]pyrazine]
> 5000 | 100 to 1000 | – | – | CC(=O)N1CCN(c2ccnc(-c3cnc4cnc(C(F)F)cn34)n2)CC1 [IV-22, 1-(4-(2-(6-(Difluoromethyl)imidazo[1,2-a]pyrazin-3-yl)pyrimidin-4-yl)piperazin-1-yl)ethan-1-one]
500 to 5000 | 100 to 1000 | – | – | CS(=O)(=O)N1CCC2CCN(c3ccnc(-c4cnc5cnc(C(F)F)cn45)n3)CC21 (stereo not drawn) [IV-144, 6-(Difluoromethyl)-3-(4-(1-(methylsulfonyl)octahydro-6H-pyrrolo[2,3-a]pyridin-6-yl)pyrimidin-2-yl)imidazo[1,2-a]pyrazine]
> 5000 | 100 to 1000 | – | – | O=S(=O)(NC1CCCC1)C1CCCN(c2ccnc(-c3cnc4cnc(C(F)F)cn34)n2)C1 (stereo not drawn) [IV-171, N-Cyclopentyl-1-(2-(6-(difluoromethyl)imidazo[1,2-a]pyrazin-3-yl)pyrimidin-4-yl)piperidine-3-sulfonamide]
< 500 | < 10 | – | – | CC1CN(c2ccnc(-c3cnc4cnc(Br)cn34)n2)C(C)C(c2cn[nH]c2)N1 (stereo not drawn) [IV-279, 6-Bromo-3-(4-(2,5-dimethyl-3-(1H-pyrazol-4-yl)piperazin-1-yl)pyrimidin-2-yl)imidazo[1,2-a]pyrazine]
> 5000 | 100 to 1000 | – | – | FC(F)c1cn2c(-c3nccc(N4CCc5ccccc5C4)n3)cnc2cn1 [IV-115, 2-(2-(6-(Difluoromethyl)imidazo[1,2-a]pyrazin-3-yl)pyrimidin-4-yl)-1,2,3,4-tetrahydroisoquinoline]
500 to 5000 | < 10 | – | – | Brc1cn2c(-c3nccc(N4CCCC(c5c[nH]cn5)C4)n3)cnc2cn1 (stereo not drawn) [IV-340, 3-(4-(3-(1H-Imidazol-4-yl)piperidin-1-yl)pyrimidin-2-yl)-6-bromoimidazo[1,2-a]pyrazine]
500 to 5000 | 10 to 100 | – | – | CC1CN(c2ccnc(-c3cnc4cnc(C(F)(F)F)cn34)n2)C(C)C(c2ccc(=O)[nH]c2)N1 (stereo not drawn) [IV-677, 5-(3,6-Dimethyl-4-(2-(6-(trifluoromethyl)imidazo[1,2-a]pyrazin-3-yl)pyrimidin-4-yl)piperazin-2-yl)pyridin-2(1H)-one]
500 to 5000 | < 10 | – | – | Cc1[nH]ncc1C1CCCN(c2ccnc(-c3cnc4cnc(C(F)(F)F)cn34)n2)C1 (stereo not drawn) [IV-452, 3-(4-(3-(5-Methyl-1H-pyrazol-4-yl)piperidin-1-yl)pyrimidin-2-yl)-6-(trifluoromethyl)imidazo[1,2-a]pyrazine]
> 5000 | 100 to 1000 | – | – | FC(F)c1cn2c(-c3nccc(N4CCC(c5ccncc5)C4)n3)cnc2cn1 (stereo not drawn) [IV-68, 6-(Difluoromethyl)-3-(4-(3-(pyridin-4-yl)pyrrolidin-1-yl)pyrimidin-2-yl)imidazo[1,2-a]pyrazine]
> 5000 | 10 to 100 | – | – | Cc1n[nH]cc1C1CCCN(c2ccnc(-c3cnc4cnc(C(F)F)cn34)n2)C1 (single isomer, unassigned) [IV-469, 6-(Difluoromethyl)-3-(4-(3-(3-methyl-1H-pyrazol-4-yl)piperidin-1-yl)pyrimidin-2-yl)imidazo[1,2-a]pyrazine]
